Experimental data from ChEMBL document CHEMBL5390209, “Spinosyn A and Its Derivative Inhibit Colorectal Cancer Cell Growth via the EGFR Pathway” (J Nat Prod, 2023).
Calls of active or inactive are those of the source. No cut-off for these calls is given here.

Columns and labels:
[1] = tested on: HT-29; experiment: Antitumor activity against human HT-29 cells xenografted Balb/c mouse assessed as inhibited tumor growth at 10 mg/kg/day, ip administrated for twice a week and measured after 6 days; assay type: functional, organism-based; settings: time 6.0 day
[2] = Toxicity in human HT-29 cells xenografted Balb/c mouse assessed as change in body weight at 10 mg/kg/day, ip administrated for twice a week and measured after 6 days; assay type: organism-based; settings: in vivo, 144 h, time 6 day
[3] = tested on: HT-29; experiment: Antitumor activity against human HT-29 cells xenografted Balb/c mouse assessed as reduction in tumor growth at 10 mg/kg/day, ip administrated for twice a week and measured after 28 days; assay type: functional, organism-based; settings: time 28.0 day
[4] = tested on: HT-29; experiment: Antitumor activity against human HT-29 cells xenografted Balb/c mouse assessed as reduction in tumor cell density at 10 mg/kg/day, ip administrated for twice a week and measured after 28 days by Hematoxylin and Eosin staining based method; assay type: functional, organism-based; settings: time 28.0 day
[5] = tested on: HT-29; experiment: Antitumor activity against human HT-29 cells xenografted Balb/c mouse assessed as reduction in Ki67 expression level at 10 mg/kg/day, ip administrated for twice a week and measured after 28 days by immunohistochemistry staining method; assay type: functional, organism-based; settings: time 28.0 day
[6] = Toxicity in human HT-29 cells xenografted Balb/c mouse assessed as change in liver pathology at 10 mg/kg/day, ip administrated for twice a week and measured after 28 days; assay type: organism-based; settings: in vivo, 672 h, time 28 day
[7] = Toxicity in human HT-29 cells xenografted Balb/c mouse assessed as change in heart pathology at 10 mg/kg/day, ip administrated for twice a week and measured after 28 days; assay type: organism-based; settings: in vivo, 672 h, time 28 day
[8] = Toxicity in human HT-29 cells xenografted Balb/c mouse assessed as change in spleen pathology at 10 mg/kg/day, ip administrated for twice a week and measured after 28 days; assay type: organism-based; settings: in vivo, 672 h, time 28 day
[9] = Toxicity in human HT-29 cells xenografted Balb/c mouse assessed as change in lung pathology at 10 mg/kg/day, ip administrated for twice a week and measured after 28 days; assay type: organism-based; settings: in vivo, 672 h, time 28 day
[10] = Toxicity in human HT-29 cells xenografted Balb/c mouse assessed as change in kidney pathology at 10 mg/kg/day, ip administrated for twice a week and measured after 28 days; assay type: organism-based; settings: in vivo, 672 h, time 28 day
[11] = tested on: HT-29; experiment: Inhibition of EGFR in human HT-29 cells xenografted in BALB/c nude mouse assessed as EGFR protein level in tumor at 10 mg/kg/day, ip administrated for twice a week and measured after 28 days by Western blotting analysis; assay type: functional, organism-based; settings: time 28.0 day
[12] = tested on: HT-29; experiment: Inhibition of HER2 in human HT-29 cells xenografted in BALB/c nude mouse assessed as HER2 protein level in tumor at 10 mg/kg/day, ip administrated for twice a week and measured after 28 days by Western blotting analysis; assay type: functional, organism-based; settings: time 28.0 day
[13] = tested on: HT-29; experiment: Inhibition of EGFR in human HT-29 cells xenografted in BALB/c nude mouse assessed as reduction in EGFR protein expression level in tumor at 10 mg/kg/day, ip administrated for twice a week and measured after 28 days by Western blotting analysis; assay type: functional, organism-based; settings: time 28.0 day
[14] = tested on: HT-29; experiment: Inhibition of HER2 in human HT-29 cells xenografted in BALB/c nude mouse assessed as HER2 protein expression level in tumor at 10 mg/kg/day, ip administrated for twice a week and measured after 28 days by Western blotting analysis; assay type: functional, organism-based; settings: time 28.0 day

## O=c1[nH]cc(F)c(=O)[nH]1 [FLUOROURACIL]
[1]
  inhibition: Active
[2]
  Activity: Non-Toxic
[3]
  Activity: Active
[4]
  Activity: Active
[5]
  Activity: Active
[6]
  Activity: Non-Toxic
[7]
  Activity: Non-Toxic
[8]
  Activity: Non-Toxic
[9]
  Activity: Non-Toxic
[10]
  Activity: Non-Toxic
[11]
  inhibition: Active
[12]
  inhibition: inactive
[13]
  inhibition: Active
[14]
  inhibition: inactive
